Assay results reported in BindingDB's records for doi:10.1046/j.1440-1681.1999.03022.x (University of Melbourne, 1999).

Target: T1, Promotilin (Oryctolagus cuniculus, UniProt P27114)
T1 sequence (P27114 whole entry): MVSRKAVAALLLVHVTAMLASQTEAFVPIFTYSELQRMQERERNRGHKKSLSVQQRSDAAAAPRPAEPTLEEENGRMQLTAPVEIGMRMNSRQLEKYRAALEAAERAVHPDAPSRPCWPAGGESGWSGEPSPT

SMILES	Ki [nM]
C[N+](C)(C)CCOC(N)=O [(2-Hydroxyethyl)trimethyl ammonium chloride carbamate]	158
CC[C@H]1OC(=O)[C@H](C)[C@@H](O[C@H]2C[C@@](C)(OC)[C@@H](O)[C@H](C)O2)[C@H](C)[C@@H](O[C@H]2O[C@@H](C)C[C@@H](N(C)C)[C@@H]2O)[C@](C)(O)C[C@@H](C)C(=O)[C@H](C)[C@@H](O)[C@]1(C)O [(3R,4S,5S,6R,7R,9R,11R,12R,13S,14R)-6-{[(2R,3S,4R,6S)-4-(dimethylamino)-3-hydroxy-6-methyloxan-2-yl]oxy}-14-ethyl-7,12,13-trihydroxy-4-{[(2R,4R,5S,6S)-5-hydroxy-4-methoxy-4,6-dimethyloxan-2-yl]oxy}-3,5,7,9,11,13-hexamethyl-1-oxacyclotetradecane-2,10-dione]	1000
CC[C@H](C)[C@H](NC(=O)[C@@H]1CCCN1C(=O)[C@@H](NC(=O)[C@@H](N)Cc1ccccc1)C(C)C)C(=O)N[C@@H](Cc1ccccc1)C(=O)N[C@H](C(=O)N[C@@H](Cc1ccc(O)cc1)C(=O)NCC(=O)N[C@@H](CCC(=O)O)C(=O)N[C@@H](CC(C)C)C(=O)N[C@@H](CCC(N)=O)C(=O)N[C@@H](CCCNC(=N)N)C(=O)N[C@@H](CCSC)C(=O)N[C@@H](CCC(N)=O)C(=O)N[C@@H](CCC(=O)O)C(=O)N[C@@H](CCCCN)C(=O)N[C@@H](CCC(=O)O)C(=O)N[C@@H](CCCNC(=N)N)C(=O)N[C@@H](CC(N)=O)C(=O)N[C@@H](CCCCN)C(=O)NCC(=O)N[C@@H](CCC(N)=O)C(=O)O)[C@@H](C)O [CAS_52906-92-0]	3.98
CC[C@H]1OC(=O)[C@H](C)[C@@H](O[C@H]2C[C@@](C)(OC)[C@@H](O)[C@H](C)O2)[C@H](C)[C@@H](O[C@@H]2O[C@H](C)C[C@H](N(C)C(C)C)[C@H]2O)[C@@]2(C)CC(C)=C(O2)[C@H](C)C(=O)[C@]1(C)OC [Mitemcinal]	31.6
